Laboratory results published in BigSolDB 2.1.

OC[C@H]1O[C@@H](Oc2ccc(O)cc2)[C@H](O)[C@@H](O)[C@@H]1O
solubility (mole fraction)
Details | 283.15 K | 288.15 K | 293.15 K | 298.15 K | 303.15 K | 308.15 K | 313.15 K | 318.15 K | 323.15 K
in 2-butanone | 0.000188 | 0.000212 | 0.000243 | 0.00026 | 0.000297 | 0.000346 | 0.000418 | 0.00045 | 0.000524
in acetone | 0.000686 | 0.00071 | 0.000773 | 0.000799 | 0.000867 | 0.00101 | 0.00118 | 0.00127 | 0.00143
in acetonitrile | 8.17e-05 | 9.3e-05 | 0.000124 | 0.000149 | 0.000163 | 0.000211 | 0.000236 | 0.000318 | 0.000362
in ethanol | 0.00263 | 0.00268 | 0.0029 | 0.00309 | 0.00353 | 0.00419 | 0.00477 | 0.00551 | 0.0059
in ethyl acetate | 8.03e-05 | 8.14e-05 | 8.6e-05 | 9.09e-05 | 9.62e-05 | 0.000104 | 0.000112 | 0.000124 | 0.000156
in ethylene glycol | 0.0471 | 0.0486 | 0.0507 | 0.0527 | 0.0549 | 0.0572 | 0.0601 | 0.0631 | 0.0666
in isobutanol | 0.000225 | 0.000279 | 0.000303 | 0.000394 | 0.000454 | 0.000572 | 0.000668 | 0.000911 | 0.00104
in isopropanol | 0.000727 | 0.000858 | 0.0009 | 0.00108 | 0.00125 | 0.0016 | 0.00191 | 0.00216 | 0.00261
in methanol | 0.0113 | 0.0117 | 0.0123 | 0.0132 | 0.0143 | 0.016 | 0.0176 | 0.0191 | 0.0221
in methyl acetate | 0.000112 | 0.000129 | 0.00014 | 0.000154 | 0.000185 | 0.000239 | 0.000277 | 0.000353 | 0.00041
in n-butanol | 0.000376 | 0.000499 | 0.000566 | 0.000699 | 0.00075 | 0.001 | 0.00115 | 0.00131 | 0.00144
in n-propanol | 0.000764 | 0.000889 | 0.00103 | 0.00115 | 0.00128 | 0.00155 | 0.00181 | 0.00207 | 0.0023
